Our source for the Ki values is BindingDB's records for doi:10.1074/jbc.M110.139634 (French Alternative Energies and Atomic Energy Commission, 2010).

What all share (experiment): Enzyme Assay
Holding throughout (details): pH 6.8; 25 °C

Experiment [1] has as its target 72 kDa type IV collagenase (Homo sapiens, UniProt P08253). The text has this: (§1) Enzyme assay using matrix metalloproteinases.
Experiment [2] has as its target Angiotensin-converting enzyme (Homo sapiens, UniProt P12821).
From the text: as §1

Experiment [3] concerns the target Collagenase 3 (Homo sapiens, UniProt P45452).
From the text: as §1

Experiment [4] has as its target T1, Disintegrin and metalloproteinase domain-containing protein 17 [215-477,S266A,N452Q] (Homo sapiens, UniProt P78536, N452Q/S266A).
T1 construct: 215-477
From the text: as §1

Experiment [5] concerns the target T2, Interstitial collagenase (Homo sapiens, UniProt P03956).
T2 sequence (P03956 whole entry): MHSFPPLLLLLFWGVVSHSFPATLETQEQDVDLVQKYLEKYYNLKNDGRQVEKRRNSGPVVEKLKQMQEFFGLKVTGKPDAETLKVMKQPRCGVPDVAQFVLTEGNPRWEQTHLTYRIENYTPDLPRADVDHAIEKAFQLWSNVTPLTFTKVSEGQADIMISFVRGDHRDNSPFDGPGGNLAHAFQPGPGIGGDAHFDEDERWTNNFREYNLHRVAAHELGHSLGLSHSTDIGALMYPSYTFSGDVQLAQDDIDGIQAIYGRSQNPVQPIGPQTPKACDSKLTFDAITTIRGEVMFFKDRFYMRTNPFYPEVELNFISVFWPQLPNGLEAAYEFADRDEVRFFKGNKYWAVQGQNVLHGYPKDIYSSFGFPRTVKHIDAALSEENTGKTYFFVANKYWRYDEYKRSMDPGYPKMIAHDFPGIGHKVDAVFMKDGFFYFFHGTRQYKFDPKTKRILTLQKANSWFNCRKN
From the text: as §1

For experiment [6], the target named is Macrophage metalloelastase (Homo sapiens, UniProt P39900).
From the text: as §1

The target of experiment [7] is T3, Matrilysin (Homo sapiens, UniProt P09237).
T3 sequence (P09237 whole entry): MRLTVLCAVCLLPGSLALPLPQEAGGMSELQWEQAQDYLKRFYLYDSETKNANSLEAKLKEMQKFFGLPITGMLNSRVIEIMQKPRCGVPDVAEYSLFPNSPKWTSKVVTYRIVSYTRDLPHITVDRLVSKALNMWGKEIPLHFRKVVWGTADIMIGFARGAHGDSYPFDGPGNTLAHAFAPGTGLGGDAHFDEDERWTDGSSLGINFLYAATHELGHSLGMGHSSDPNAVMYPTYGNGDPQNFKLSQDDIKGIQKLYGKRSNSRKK
From the text: as §1

Experiment [8] has as its target Matrix metalloproteinase-14 (Homo sapiens, UniProt P50281).
From the text: as §1

The target of experiment [9] is Matrix metalloproteinase-9 (Homo sapiens, UniProt P14780).
From the text: as §1

Experiment [10] has as its target Neutrophil collagenase (Homo sapiens, UniProt P22894).
From the text: as §1

The target of experiment [11] is Stromelysin-1 (Homo sapiens, UniProt P08254).
From the text: as §1

Experiment [12] concerns the target Stromelysin-2 (Homo sapiens, UniProt P09238).
From the text: as §1

Sequence of Stromelysin-1 (P08254 whole entry): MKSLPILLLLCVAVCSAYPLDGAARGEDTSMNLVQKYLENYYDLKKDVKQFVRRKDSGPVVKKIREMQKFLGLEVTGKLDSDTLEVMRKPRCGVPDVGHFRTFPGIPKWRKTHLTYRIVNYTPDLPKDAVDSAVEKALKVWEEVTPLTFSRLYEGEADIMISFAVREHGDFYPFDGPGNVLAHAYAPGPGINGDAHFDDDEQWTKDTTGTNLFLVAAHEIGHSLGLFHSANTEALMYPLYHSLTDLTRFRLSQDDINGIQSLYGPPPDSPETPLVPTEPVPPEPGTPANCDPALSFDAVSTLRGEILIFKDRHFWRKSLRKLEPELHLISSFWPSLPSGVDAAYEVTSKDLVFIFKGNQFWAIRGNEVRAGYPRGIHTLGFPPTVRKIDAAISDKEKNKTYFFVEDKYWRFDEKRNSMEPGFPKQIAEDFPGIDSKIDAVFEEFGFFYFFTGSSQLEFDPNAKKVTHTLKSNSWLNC
Sequence of Angiotensin-converting enzyme (P12821 whole entry): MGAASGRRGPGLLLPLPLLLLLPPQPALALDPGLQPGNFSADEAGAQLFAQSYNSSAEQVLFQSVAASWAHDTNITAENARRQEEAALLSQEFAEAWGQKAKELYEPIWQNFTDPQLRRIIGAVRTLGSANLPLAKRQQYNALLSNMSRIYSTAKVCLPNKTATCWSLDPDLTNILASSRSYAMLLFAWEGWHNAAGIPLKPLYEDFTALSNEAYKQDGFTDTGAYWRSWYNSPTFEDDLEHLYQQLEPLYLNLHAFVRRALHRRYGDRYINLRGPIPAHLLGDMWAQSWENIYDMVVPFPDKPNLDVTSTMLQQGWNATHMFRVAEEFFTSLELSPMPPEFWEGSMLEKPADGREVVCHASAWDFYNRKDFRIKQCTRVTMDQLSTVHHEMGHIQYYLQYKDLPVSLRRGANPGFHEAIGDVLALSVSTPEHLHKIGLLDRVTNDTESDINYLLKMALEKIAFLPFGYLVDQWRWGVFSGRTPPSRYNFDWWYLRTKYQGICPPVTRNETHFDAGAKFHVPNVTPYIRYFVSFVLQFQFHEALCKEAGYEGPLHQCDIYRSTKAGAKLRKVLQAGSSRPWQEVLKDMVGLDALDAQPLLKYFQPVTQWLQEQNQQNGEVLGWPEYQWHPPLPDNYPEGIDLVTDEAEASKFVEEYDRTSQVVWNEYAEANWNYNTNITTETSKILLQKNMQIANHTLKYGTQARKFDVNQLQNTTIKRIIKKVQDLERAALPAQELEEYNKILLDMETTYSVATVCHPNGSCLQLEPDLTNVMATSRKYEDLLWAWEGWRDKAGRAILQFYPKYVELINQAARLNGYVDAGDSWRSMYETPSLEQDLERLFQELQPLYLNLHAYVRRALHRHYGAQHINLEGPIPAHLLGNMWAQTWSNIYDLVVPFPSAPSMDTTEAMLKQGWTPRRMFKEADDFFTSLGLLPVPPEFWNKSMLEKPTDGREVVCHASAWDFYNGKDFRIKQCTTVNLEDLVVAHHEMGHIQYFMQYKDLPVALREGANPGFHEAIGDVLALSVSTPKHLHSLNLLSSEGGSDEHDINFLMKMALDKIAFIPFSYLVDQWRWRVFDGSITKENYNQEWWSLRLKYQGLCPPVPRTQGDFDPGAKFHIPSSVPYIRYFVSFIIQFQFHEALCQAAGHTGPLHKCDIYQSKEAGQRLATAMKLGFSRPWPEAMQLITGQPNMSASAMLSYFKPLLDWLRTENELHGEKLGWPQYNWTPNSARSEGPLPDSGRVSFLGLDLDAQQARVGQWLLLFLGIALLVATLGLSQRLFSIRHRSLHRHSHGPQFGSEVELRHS
Sequence of Neutrophil collagenase (P22894 whole entry): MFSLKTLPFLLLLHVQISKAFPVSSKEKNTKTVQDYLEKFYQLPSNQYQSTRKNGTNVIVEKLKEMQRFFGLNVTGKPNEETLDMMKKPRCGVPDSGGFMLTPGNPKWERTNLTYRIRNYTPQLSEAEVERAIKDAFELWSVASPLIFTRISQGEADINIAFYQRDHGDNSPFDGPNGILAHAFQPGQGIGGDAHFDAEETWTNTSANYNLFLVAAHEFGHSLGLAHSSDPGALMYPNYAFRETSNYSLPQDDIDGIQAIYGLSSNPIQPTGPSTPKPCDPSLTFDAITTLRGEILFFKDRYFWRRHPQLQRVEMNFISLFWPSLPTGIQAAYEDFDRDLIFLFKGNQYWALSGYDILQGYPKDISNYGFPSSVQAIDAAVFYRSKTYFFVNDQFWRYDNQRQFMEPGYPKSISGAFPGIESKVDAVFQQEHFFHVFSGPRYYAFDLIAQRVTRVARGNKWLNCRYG
Sequence of Macrophage metalloelastase (P39900 whole entry): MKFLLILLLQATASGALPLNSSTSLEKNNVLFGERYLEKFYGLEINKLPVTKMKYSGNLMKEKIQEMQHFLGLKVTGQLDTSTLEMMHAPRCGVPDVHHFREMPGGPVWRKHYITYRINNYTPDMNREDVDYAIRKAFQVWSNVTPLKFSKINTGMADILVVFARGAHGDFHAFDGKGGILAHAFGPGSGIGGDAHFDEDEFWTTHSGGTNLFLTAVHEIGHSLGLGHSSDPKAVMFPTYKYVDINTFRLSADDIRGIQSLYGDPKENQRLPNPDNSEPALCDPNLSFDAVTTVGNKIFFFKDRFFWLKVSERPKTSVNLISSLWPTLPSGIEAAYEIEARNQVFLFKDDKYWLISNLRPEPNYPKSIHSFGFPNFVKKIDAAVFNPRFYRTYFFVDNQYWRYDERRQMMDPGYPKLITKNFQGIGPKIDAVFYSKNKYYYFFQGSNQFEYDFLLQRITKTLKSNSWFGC
Sequence of Matrix metalloproteinase-9 (P14780 whole entry): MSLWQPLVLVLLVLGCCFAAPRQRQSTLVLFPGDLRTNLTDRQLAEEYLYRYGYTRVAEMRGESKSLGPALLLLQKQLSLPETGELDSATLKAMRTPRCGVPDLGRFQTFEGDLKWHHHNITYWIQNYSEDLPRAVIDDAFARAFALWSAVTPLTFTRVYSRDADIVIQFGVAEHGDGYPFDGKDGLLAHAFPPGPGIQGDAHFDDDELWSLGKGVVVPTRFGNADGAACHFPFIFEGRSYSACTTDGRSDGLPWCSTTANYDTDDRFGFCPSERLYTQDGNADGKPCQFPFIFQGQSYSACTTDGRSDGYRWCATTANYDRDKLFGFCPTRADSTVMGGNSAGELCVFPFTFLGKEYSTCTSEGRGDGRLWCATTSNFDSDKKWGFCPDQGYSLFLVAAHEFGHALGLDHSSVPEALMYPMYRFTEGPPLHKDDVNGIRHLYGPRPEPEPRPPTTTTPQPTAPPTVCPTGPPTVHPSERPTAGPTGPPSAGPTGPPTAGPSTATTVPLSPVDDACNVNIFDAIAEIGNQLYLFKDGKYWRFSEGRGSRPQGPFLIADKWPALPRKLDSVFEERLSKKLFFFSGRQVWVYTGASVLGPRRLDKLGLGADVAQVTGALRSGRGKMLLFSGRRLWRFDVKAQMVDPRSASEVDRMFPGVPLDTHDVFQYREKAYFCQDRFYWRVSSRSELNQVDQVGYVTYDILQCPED
T1 sequence (P78536 215-477 S266A/N452Q): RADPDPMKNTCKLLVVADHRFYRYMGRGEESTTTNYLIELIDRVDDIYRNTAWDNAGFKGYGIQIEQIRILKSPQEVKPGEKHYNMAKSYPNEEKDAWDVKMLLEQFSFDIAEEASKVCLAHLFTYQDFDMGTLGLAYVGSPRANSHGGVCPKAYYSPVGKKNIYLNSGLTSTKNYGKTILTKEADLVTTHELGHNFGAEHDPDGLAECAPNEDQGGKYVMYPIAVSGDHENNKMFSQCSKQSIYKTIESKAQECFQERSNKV
Sequence of 72 kDa type IV collagenase (P08253 whole entry): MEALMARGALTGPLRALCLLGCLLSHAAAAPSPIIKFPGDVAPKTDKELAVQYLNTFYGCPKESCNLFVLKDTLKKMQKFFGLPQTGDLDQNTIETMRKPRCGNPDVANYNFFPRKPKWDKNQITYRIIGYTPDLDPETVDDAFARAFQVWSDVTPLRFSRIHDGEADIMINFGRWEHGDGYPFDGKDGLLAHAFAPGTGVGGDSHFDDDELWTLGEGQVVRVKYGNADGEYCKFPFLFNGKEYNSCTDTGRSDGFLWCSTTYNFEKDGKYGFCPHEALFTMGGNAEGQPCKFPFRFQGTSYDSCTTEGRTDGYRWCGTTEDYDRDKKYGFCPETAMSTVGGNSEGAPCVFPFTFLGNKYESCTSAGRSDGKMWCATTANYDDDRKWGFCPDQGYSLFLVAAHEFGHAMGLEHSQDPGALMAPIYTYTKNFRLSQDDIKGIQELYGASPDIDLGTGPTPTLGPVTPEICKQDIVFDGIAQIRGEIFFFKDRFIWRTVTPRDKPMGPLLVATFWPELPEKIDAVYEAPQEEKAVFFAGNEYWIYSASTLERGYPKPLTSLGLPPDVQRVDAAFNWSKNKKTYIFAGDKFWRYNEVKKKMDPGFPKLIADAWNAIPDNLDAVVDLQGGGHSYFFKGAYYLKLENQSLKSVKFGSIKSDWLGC
Sequence of Stromelysin-2 (P09238 whole entry): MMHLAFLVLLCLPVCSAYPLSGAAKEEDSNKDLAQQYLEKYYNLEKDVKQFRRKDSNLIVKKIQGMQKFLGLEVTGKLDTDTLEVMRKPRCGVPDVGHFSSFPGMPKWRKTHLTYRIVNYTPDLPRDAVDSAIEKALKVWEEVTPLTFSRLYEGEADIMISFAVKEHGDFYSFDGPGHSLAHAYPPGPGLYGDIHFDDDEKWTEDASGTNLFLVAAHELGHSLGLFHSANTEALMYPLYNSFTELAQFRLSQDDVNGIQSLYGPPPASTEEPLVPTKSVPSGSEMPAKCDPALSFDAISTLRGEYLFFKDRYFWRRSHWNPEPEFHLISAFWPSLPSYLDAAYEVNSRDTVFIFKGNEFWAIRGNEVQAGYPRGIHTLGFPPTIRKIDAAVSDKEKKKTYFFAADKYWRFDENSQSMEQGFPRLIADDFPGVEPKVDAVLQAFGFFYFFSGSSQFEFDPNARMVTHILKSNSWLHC

Turning to `NC(=O)[C@@H](CCC(=O)O)NC(=O)[C@H](CCC(=O)O)NC(=O)C(Cc1cc(-c2ccc(-c3cccc(Cl)c3)cc2)no1)CP(=O)(O)c1ccc(Br)cc1` (some centres not stated) [RXP470, Compound 4], the Ki (commonly a measure of affinity in units of concentration, obtained from inhibition or displacement) was 0.192 µM in experiment [1]; greater than 10 µM in [2]; 0.049 µM in [3]; greater than 10 µM in [4]; greater than 10 µM in [5]; 0.00019 µM in experiment [6]. Further, the Ki in experiment [7] stood at 0.626 µM; in experiment [8] it was 0.14 µM; in experiment [9], 0.85 µM; in experiment [10], 0.271 µM; in experiment [11] it was 0.04 µM; in [12], 0.0083 µM.
